Data from patent publication EP4793274A1, “SALT AND CRYSTAL FORM OF KIF18A INHIBITOR COMPOUND, PREPARATION METHOD THEREFOR AND USE THEREOF” (Hubei Bio-Pharmaceutical Industrial Technological Institute …, priority 2023, dated 2025).
Where a name gives a salt, the structure may show the parent alone.

Assays:
[1] = Solubility at room temperature in water, SGF and FaSSIF (HPLC concentration, pH of filtrate, XRPD of residual solid); details: for S: solubility: feeding concentration 1 mg/mL; for pH: pH of filtrate
Procedure: 100 mg of NaCl and 50 mg of Triton X-100 were weighed into a 50 mL volumetric flask and then completely dissolved by addition of purified water. 816 µL of 1 M hydrochloric acid was added, and the pH was adjusted to 1.8 with 1 M hydrochloric acid or 1 M NaOH solution. The mixed solution was brought to the volume by addition of purified water.
340 mg of anhydrous NaH2PO4 and 620 mg of NaCl were weighed into a 100 mL volumetric flask, and then completely dissolved by addition of purified water. 55.44 µL of a 50% NaOH solution was then added, and the pH was adjusted to 6.5 with 1 M hydrochloric acid or 1 M NaOH solution. The mixed solution was brought to the volume by addition of purified water. Subsequently, 110 mg of SIF powder was weighed into a 50 mL volumetric flask and completely dissolved in the solution described above, and the mixed solution was brought to the volume.
Solids at a feeding concentration of 1 mg/mL (calculated based on free crystal form) were rotationally mixed with corresponding vehicles at room temperature. […] After sampling at each time point, the samples were centrifuged (at 10000 rpm) and filtered (through a 0.22 µm PTFE filter head), the HPLC concentrations and pH values of the filtrates were determined, and the centrifuged solid samples were subjected to XRPD analysis.

[2] = Dynamic solubility at 37 °C in H2O, SGF, FaSSIF and FeSSIF (HPLC concentration, pH of filtrate, XRPD of residual solid); format: physicochemical; details: for S: solubility: feeding concentration 10 mg/mL; for FC: crystal form change: XRPD of residual solid; for pH: pH of filtrate
Procedure: 0.82 mL of glacial acetic acid and 1.18 g of NaCl were added to a 100 mL volumetric flask and completely dissolved by addition of purified water.
The solubility of each sample in H2O, SGF, FaSSIF, and FeSSIF was determined at different time points (1 h, 2 h, 4 h, and 24 h). […] 137-156. […] Table C-2. Summary of dynamic solubility test results at 37 °C

[3] = Solid state stability (XRPD and HPLC purity); format: physicochemical; details: 80 °C/sealed condition for 1 day
Text: 167-171. […] Table C-3. Summary of solid state stability evaluation

[4] = Hygroscopicity by dynamic vapor sorption (DVS); format: physicochemical
Procedure: Dynamic vapor sorption (DVS) curves were acquired on a DVS IntrInsic from Surface Measurement Systems (SMS). The relative humidity at 25 °C was corrected with the deliquescence points of LiCl, Mg(NO3)2, and KCl. Table A-5. DVS test parameters
The percentage changes in mass of the samples when the humidity changed (0% RH to 95% RH) at a constant temperature of 25 °C were collected. 157-166.

SMILES: Cc1cc(-c2cnn(-c3ccc(NS(=O)(=O)CCO)cc3N3CCC4(CC3)CC4)c2)nc(N2CCC(F)(F)CC2)n1 [free crystal form C]
- S: solubility ([1]; FaSSIF, 2 h, 120 min): 13.6 µg/mL
- S: solubility ([1]; FaSSIF, 24 h, 1440 min): 3.8 µg/mL
- S: solubility ([1]; SGF, 2 h, 120 min): 4 µg/mL
- S: solubility ([1]; SGF, 24 h, 1440 min): 3.4 µg/mL
- pH ([1]; FaSSIF, 2 h): 6.5
- pH ([1]; FaSSIF, 24 h): 6.5
- pH ([1]; H2O, 2 h): 8.7
- pH ([1]; H2O, 24 h): 7.2
- pH ([1]; SGF, 2 h): 1.9
- pH ([1]; SGF, 24 h): 1.9

SMILES: Cc1cc(-c2cnn(-c3ccc(NS(=O)(=O)CCO)cc3N3CCC4(CC3)CC4)c2)nc(N2CCC(F)(F)CC2)n1 [crystal form C of the hydrochloride]
- S: solubility ([1]; FaSSIF, 2 h, listed as Crystal form C of hydrochloride, 120 min): 120.4 µg/mL
- S: solubility ([1]; FaSSIF, 24 h, listed as Crystal form C of hydrochloride, 1440 min): 36.3 µg/mL
- S: solubility ([1]; H2O, 24 h, listed as Crystal form C of hydrochloride, 1440 min): 0.2 µg/mL
- S: solubility ([1]; SGF, 2 h, listed as Crystal form C of hydrochloride, 120 min): 54.1 µg/mL
- S: solubility ([1]; SGF, 24 h, listed as Crystal form C of hydrochloride, 1440 min): 18.8 µg/mL
- pH ([1]; FaSSIF, 2 h, listed as Crystal form C of hydrochloride): 6.3
- pH ([1]; FaSSIF, 24 h, listed as Crystal form C of hydrochloride): 6.3
- pH ([1]; H2O, 2 h, listed as Crystal form C of hydrochloride): 2.7
- pH ([1]; H2O, 24 h, listed as Crystal form C of hydrochloride): 2.7
- pH ([1]; SGF, 2 h, listed as Crystal form C of hydrochloride): 1.8
- pH ([1]; SGF, 24 h, listed as Crystal form C of hydrochloride): 1.8

SMILES: Cc1cc(-c2cnn(-c3ccc(NS(=O)(=O)CCO)cc3N3CCC4(CC3)CC4)c2)nc(N2CCC(F)(F)CC2)n1 [free crystal form D]
- S: solubility ([2]; FaSSIF, 1 h, 60 min): 6.5 µg/mL
- S: solubility ([2]; FaSSIF, 2 h, 120 min): 6.5 µg/mL
- S: solubility ([2]; FaSSIF, 4 h, 240 min): 6.3 µg/mL
- S: solubility ([2]; FaSSIF, 24 h, 1440 min): 5 µg/mL
- S: solubility ([2]; FeSSIF, 1 h, 60 min): 16.2 µg/mL
- S: solubility ([2]; FeSSIF, 2 h, 120 min): 17.2 µg/mL
- S: solubility ([2]; FeSSIF, 4 h, 240 min): 15.4 µg/mL
- S: solubility ([2]; FeSSIF, 24 h, 1440 min): 15 µg/mL
- S: solubility ([2]; H2O, 1 h, 60 min): 0.1 µg/mL
- S: solubility ([2]; H2O, 2 h, 120 min): 0.1 µg/mL
- S: solubility ([2]; H2O, 4 h, 240 min): 0.2 µg/mL
- S: solubility ([2]; SGF, 1 h, 60 min): 6.2 µg/mL
- S: solubility ([2]; SGF, 2 h, 120 min): 5.7 µg/mL
- S: solubility ([2]; SGF, 4 h, 240 min): 5.9 µg/mL
- S: solubility ([2]; SGF, 24 h, 1440 min): 5.1 µg/mL
- FC: crystal form change ([2]; FaSSIF, 1 h): No
- FC: crystal form change ([2]; FaSSIF, 2 h): No
- FC: crystal form change ([2]; FaSSIF, 4 h): No
- FC: crystal form change ([2]; FaSSIF, 24 h): No
- FC: crystal form change ([2]; FeSSIF, 1 h): No
- FC: crystal form change ([2]; FeSSIF, 2 h): No
- FC: crystal form change ([2]; FeSSIF, 4 h): No
- FC: crystal form change ([2]; FeSSIF, 24 h): No
- FC: crystal form change ([2]; H2O, 1 h): No
- FC: crystal form change ([2]; H2O, 2 h): No
- FC: crystal form change ([2]; H2O, 4 h): No
- FC: crystal form change ([2]; H2O, 24 h): No
- FC: crystal form change ([2]; SGF, 1 h): No
- FC: crystal form change ([2]; SGF, 2 h): No
- FC: crystal form change ([2]; SGF, 4 h): No
- FC: crystal form change ([2]; SGF, 24 h): No
- pH ([2]; FaSSIF, 1 h): 6.51
- pH ([2]; FaSSIF, 2 h): 6.53
- pH ([2]; FaSSIF, 4 h): 6.55
- pH ([2]; FaSSIF, 24 h): 6.49
- pH ([2]; FeSSIF, 1 h): 4.97
- pH ([2]; FeSSIF, 2 h): 5.01
- pH ([2]; FeSSIF, 4 h): 4.97
- pH ([2]; FeSSIF, 24 h): 4.96
- pH ([2]; H2O, 1 h): 6.91
- pH ([2]; H2O, 2 h): 7.64
- pH ([2]; H2O, 4 h): 7.88
- pH ([2]; H2O, 24 h): 7.65
- pH ([2]; SGF, 1 h): 1.26
- pH ([2]; SGF, 2 h): 1.38
- pH ([2]; SGF, 4 h): 1.29
- pH ([2]; SGF, 24 h): 1.32
- crystal form after the stability test (XRPD) [3]: converted to the free crystal forms J + D
- crystal form after the DVS test (XRPD) ([4]; 25 °C, 0% RH to 95% RH): converted to the free crystal forms D + J
- vapor sorption values ([4]; 25 °C/80% RH): 3.129%
